Measured values from US5446021A, “Agricultural and horticultural compositions inducing resistance in plants against salt- and water-stress” (Nippon Zoki Pharmaceutical Co., Ltd., priority 1988, dated 1995).

Columns and labels:
[1] = system: rice (Oryza sativa L. japonica); experiment: Effects on rice seedlings under salt-stress caused by sodium chloride (NaCl); assay type: in vivo; conditions: 7 days after transplantation, mean ± S.E.
Procedure: (§1) A filter paper soaked with an aqueous solution of a test agent was laid in a germination dish. Even-sized seeds of rice (Oryza sativa L. japonica) were selected, washed with an aqueous solution containing 0.5% Tween 20 and 1.0% sodium hypochlorite, and then dried. The gemination dishes were sowed with the said rice seeds.
(§2) The seeds were treated with the aqueous solution of the test agent only during the germination period (4 days). The five seeds having equal root lengths were transplanted from germination dishes to water culture vessels with/without NaCl-solution, not containing any test drug. Lengths and weights of both shoots and roots were measured 7 days after transplantation.
(§3) These tests (30° C., 24 h daylight) were repeated 6 times, and the mean value and standard error (S.E.) were obtained.

[2] = system: rice seedlings; experiment: Effects on rice seedlings under water-stress caused by mannitol; assay type: in vivo, Oryza sativa L. japonica; conditions: 25° C., 14 h daylight
Procedure: as §1
as §2, with “transplantation. […]” for “transplantation.”
Using mannitol instead of NaCl in the similar manner (I) as mentioned above, the effects of the compounds of the present invention inducing resistance against water-stress were studied.

[3] = system: tomato seedlings; experiment: Effects on tomato seedlings under salt-stress caused by NaCl; assay type: in vivo; conditions: 0.5% NaCl for 22 days, 25~30° C., 12 h daylight, n = 12~18
Procedure: (§4) Tomato seeds were treated with the aqueous solution of the test agent during the germination period (4 days). 9 days after transplantation from germination dishes to water culture vessels, 0.5% NaCl-solution was added to the vessels. The tomato seedlings had been cultivated for 22 days in the culture medium containing NaCl.

[4] = system: cucumber seedlings; experiment: Effects on cucumber seedlings under salt-stress caused by NaCl; assay type: in vivo; conditions: 0.5% NaCl for 25 days, 25~32° C., 12 h daylight, n = 5
Procedure: as §4, with “Cucumber” for “Tomato”, “(3” for “(4”, “11” for “9”, “cucumber” for “tomato”, “been for 25 days” for “been”, “cultivated” for “cultivated for 22 days”

[5] = system: azalea cuttings; experiment: Effect on azaleas under salt-stress caused by CaCl2; assay type: in vivo; conditions: cuttings in 1×10^-6 M test solution; 20% CaCl2 sprayed; 30 days after CaCl2 treatment; result in words
Procedure: Branches about 20 cm from the top of an azalea bush were cut off. The cuttings were dipped into 50 ml of water of the test solution (compound 9; 1×10^-6 M) in a glass culture tube. The solution was replaced with new solution once a week. Six days after cutting of the branches, a 20% solution of CaCl2, which has been used as an antifreezing agent, was sprayed on the cuttings. Thirty days after the CaCl2 treatment, the rate of azalea budding was measured using the following equation: [formula]

[6] = system: rice (Oryza sativa L. japonica); experiment: Rice growth in water culture with NaCl in the medium (no test agent); assay type: in vivo; conditions: for Root length / Shoot length: no test agent, 7 days after transplantation, mean ± S.E.
Procedure: as §1, §2, §3

[7] = 1.5% NaCl, compound 1 × 10^-6 M during germination
[8] = 1.0% NaCl, compound 1 × 10^-4 M during germination (4 days)
[9] = 1.0% NaCl, compound 1 × 10^-10 M during germination
[10] = 1.5% NaCl, compound 1 × 10^-4 M during germination
[11] = 1.5% NaCl, compound 1 × 10^-10 M during germination
[12] = 1.0% NaCl, compound 5 × 10^-6 M during germination
[13] = 1.0% NaCl, compound 5 × 10^-8 M during germination
[14] = 1.5% NaCl, compound 5 × 10^-8 M during germination
[15] = 1.5% NaCl, compound 5 × 10^-10 M during germination
[16] = 1.0% NaCl, compound 5 × 10^-4 M during germination
[17] = 1.5% NaCl, compound 5 × 10^-4 M during germination
[18] = 1.5% NaCl, compound 5 × 10^-6 M during germination
[19] = 2.5% mannitol, compound 1 × 10^-4 M
[20] = 2.5% mannitol, compound 1 × 10^-8 M
[21] = 5.0% mannitol, compound 1 × 10^-4 M
[22] = 5.0% mannitol, compound 1 × 10^-8 M
[23] = 1.0% NaCl, compound 1 × 10^-6 M during germination
[24] = 1.0% NaCl, compound 1 × 10^-8 M during germination
[25] = 1.5% NaCl, compound 1 × 10^-8 M during germination
[26] = 1.5% NaCl, compound 1 × 10^-10-6 M (so in the source) during germination

Q: How did the Root length [1, 7] turn out when O=C1[C@@H]2CCCN2C(=O)[C@@H]2CCCN12 (racemic) [Compound 15, ±Cyclo(Pro-Pro)] was run?
A: 42.7 ± 1.65 mm

Q: What about the Shoot length [1, 7] of the same compound?
A: 24.2 ± 0.50 mm

Q: What does the source list for CC(C)C[C@@H]1NC(=O)[C@@H]2CCCN2C1=O [Compound 2, Cyclo (L-Leu-L-Pro)]?
A: Root length [1, 8]: 38.2 ± 1.60 mm; Shoot length [1, 8]: 30.4 ± 0.60 mm; Root length [1, 9]: 37.3 ± 1.69 mm; Shoot length [1, 9]: 31.1 ± 0.60 mm; Root length [1, 10]: 38.3 ± 1.89 mm; Shoot length [1, 10]: 22.3 ± 0.53 mm; Root length [1, 11]: 39.2 ± 2.11 mm; Shoot length [1, 11]: 21.9 ± 0.53 mm

Q: CC[C@H](C)[C@@H]1NC(=O)[C@@H]2C[C@@H](O)CN2C1=O [Compound 4, Cyclo(L-Ile-L-Hyp)] was tested. Which Root length [1, 12] did it give?
A: 19.9 ± 0.60 mm

Q: What about the Shoot length [1, 12] of the same compound?
A: 30.9 ± 1.24 mm

Q: What about the Root length [1, 13] of the same compound?
A: 21.2 ± 0.68 mm

Q: And the Shoot length [1, 13]?
A: 27.1 ± 0.67 mm

Q: What about the Root length [1, 14] of the same compound?
A: 14.9 ± 0.52 mm

Q: And the Shoot length [1, 14]?
A: 16.0 ± 0.75 mm

Q: What about the Root length [1, 15] of the same compound?
A: 14.7 ± 0.52 mm

Q: And the Shoot length [1, 15]?
A: 16.3 ± 0.66 mm

Q: What does the source list for CC(C)C[C@@H]1NC(=O)[C@@H]2C[C@@H](O)CN2C1=O [Compound 5, Cyclo (L-Leu-L-Hyp)]?
A: Root length [1, 16]: 19.7 ± 0.69 mm; Shoot length [1, 16]: 28.7 ± 0.87 mm; Root length [1, 13]: 20.5 ± 0.87 mm; Shoot length [1, 13]: 25.4 ± 0.83 mm; Root length [1, 17]: 13.9 ± 0.61 mm; Shoot length [1, 17]: 17.1 ± 0.76 mm; Root length [1, 14]: 15.7 ± 0.58 mm; Shoot length [1, 14]: 15.6 ± 0.28 mm

Q: What does the source list for O=C1[C@@H]2C[C@@H](O)CN2C(=O)[C@@H]2CCCN12 [Compound 9, Cyclo(L-Pro-L-Hyp)]?
A: Root length [1, 16]: 19.5 ± 0.96 mm; Shoot length [1, 16]: 28.8 ± 0.99 mm; Root length [1, 13]: 21.8 ± 0.86 mm; Shoot length [1, 13]: 27.1 ± 0.83 mm; Root length [1, 18]: 15.9 ± 0.44 mm; Shoot length [1, 18]: 17.3 ± 0.42 mm; Root length [1, 15]: 14.0 ± 0.49 mm; Shoot length [1, 15]: 16.0 ± 0.64 mm; Root length [2, 19]: 67.7 ± 23.84 mm; Shoot length [2, 19]: 70.2 ± 3.73 mm; Root length [2, 20]: 68.2 ± 10.42 mm; Shoot length [2, 20]: 63.4 ± 2.18 mm; Root length [2, 21]: 39.6 ± 1.80 mm; Shoot length [2, 21]: 30.0 ± 2.29 mm; Root length [2, 22]: 46.7 ± 9.51 mm; Shoot length [2, 22]: 27.1 ± 1.55 mm; Dried stem and leaves weight ([3]; compound 1 × 10^-6 M during germination (4 days)): 111.4 ± 8.8 mg; Dried stem and leaves weight ([3]; compound 1 × 10^-8 M during germination (4 days)): 141.4 ± 14.4 mg; Dried stem weight ([4]; compound 1 × 10^-6 M during germination (3 days)): 104.9 ± 7.37 mg; Dried stem weight ([4]; compound 1 × 10^-8 M during germination (3 days)): 95.5 ± 3.25 mg; Protection of azaleas against salt-stress (rate of azalea budding, FIG. 1) [5]: protecting azaleas against salt-stress

Q: O=C1[C@@H]2C[C@@H](O)CN2C(=O)[C@@H]2C[C@@H](O)CN12 [Compound 13, Cyclo(L-Hyp-L-Hyp)] was tested. Which Root length [1, 23] did it give?
A: 38.5 ± 1.66 mm

Q: What about the Shoot length [1, 23] of the same compound?
A: 29.4 ± 0.61 mm

Q: What about the Root length [1, 24] of the same compound?
A: 38.1 ± 2.03 mm

Q: And the Shoot length [1, 24]?
A: 30.5 ± 0.59 mm

Q: And the Root length [1, 10]?
A: 35.6 ± 2.28 mm

Q: And the Shoot length [1, 10]?
A: 21.4 ± 0.69 mm

Q: And the Root length [1, 25]?
A: 37.9 ± 1.58 mm

Q: What about the Shoot length [1, 25] of the same compound?
A: 21.9 ± 0.40 mm

Q: With O=C1[C@@H]2C[C@H](O)CN2C(=O)[C@@H]2C[C@H](O)CN12 [Compound 14, Cyclo(L-aHyp-L-aHyp)] as the compound, how does the Root length [1, 23] read?
A: 43.2 ± 1.69 mm

Q: What about the Shoot length [1, 23] of the same compound?
A: 31.8 ± 0.57 mm

Q: What about the Root length [1, 9] of the same compound?
A: 38.2 ± 1.57 mm

Q: And the Shoot length [1, 9]?
A: 30.4 ± 0.60 mm

Q: And the Root length [1, 10]?
A: 35.0 ± 1.77 mm

Q: What about the Shoot length [1, 10] of the same compound?
A: 21.8 ± 0.58 mm

Q: What about the Root length [1, 26] of the same compound?
A: 35.3 ± 1.93 mm

Q: What about the Shoot length [1, 26] of the same compound?
A: 22.6 ± 0.83 mm

Q: With [Cl-].[Na+] [NaCl, sodium chloride] as the compound, how does the Root length ([6]; 0.1% NaCl in water culture) read?
A: 53.3 ± 2.61 mm

Q: What about the Shoot length ([6]; 0.1% NaCl in water culture) of the same compound?
A: 78.0 ± 1.74 mm

Q: What about the Root length ([6]; 0.2% NaCl in water culture) of the same compound?
A: 39.7 ± 2.02 mm

Q: And the Shoot length ([6]; 0.2% NaCl in water culture)?
A: 77.6 ± 1.63 mm

Q: And the Root length ([6]; 0.3% NaCl in water culture)?
A: 37.8 ± 1.48 mm

Q: What about the Shoot length ([6]; 0.3% NaCl in water culture) of the same compound?
A: 79.2 ± 1.48 mm

Q: What about the Root length ([6]; 0.5% NaCl in water culture) of the same compound?
A: 33.8 ± 1.76 mm

Q: And the Shoot length ([6]; 0.5% NaCl in water culture)?
A: 45.3 ± 1.82 mm

Q: And the Root length ([6]; 0.75% NaCl in water culture)?
A: 32.9 ± 1.07 mm

Q: What about the Shoot length ([6]; 0.75% NaCl in water culture) of the same compound?
A: 34.7 ± 0.66 mm

Q: What about the Root length ([6]; 1.0% NaCl in water culture) of the same compound?
A: 34.0 ± 1.75 mm

Q: And the Shoot length ([6]; 1.0% NaCl in water culture)?
A: 28.2 ± 0.47 mm

Q: And the “Rice growth with NaCl in the medium” value ([6]; Table 1, result in words)?
A: apparently inhibited
